The compounds below were run against H1047R PIK3CA enzyme (Homo sapiens, UniProt P42336, H1047R) (assay: ADP-Glo Biochemical PIK3CA Kinase Assay).
Chain of H1047R PIK3CA enzyme (P42336 whole entry H1047R): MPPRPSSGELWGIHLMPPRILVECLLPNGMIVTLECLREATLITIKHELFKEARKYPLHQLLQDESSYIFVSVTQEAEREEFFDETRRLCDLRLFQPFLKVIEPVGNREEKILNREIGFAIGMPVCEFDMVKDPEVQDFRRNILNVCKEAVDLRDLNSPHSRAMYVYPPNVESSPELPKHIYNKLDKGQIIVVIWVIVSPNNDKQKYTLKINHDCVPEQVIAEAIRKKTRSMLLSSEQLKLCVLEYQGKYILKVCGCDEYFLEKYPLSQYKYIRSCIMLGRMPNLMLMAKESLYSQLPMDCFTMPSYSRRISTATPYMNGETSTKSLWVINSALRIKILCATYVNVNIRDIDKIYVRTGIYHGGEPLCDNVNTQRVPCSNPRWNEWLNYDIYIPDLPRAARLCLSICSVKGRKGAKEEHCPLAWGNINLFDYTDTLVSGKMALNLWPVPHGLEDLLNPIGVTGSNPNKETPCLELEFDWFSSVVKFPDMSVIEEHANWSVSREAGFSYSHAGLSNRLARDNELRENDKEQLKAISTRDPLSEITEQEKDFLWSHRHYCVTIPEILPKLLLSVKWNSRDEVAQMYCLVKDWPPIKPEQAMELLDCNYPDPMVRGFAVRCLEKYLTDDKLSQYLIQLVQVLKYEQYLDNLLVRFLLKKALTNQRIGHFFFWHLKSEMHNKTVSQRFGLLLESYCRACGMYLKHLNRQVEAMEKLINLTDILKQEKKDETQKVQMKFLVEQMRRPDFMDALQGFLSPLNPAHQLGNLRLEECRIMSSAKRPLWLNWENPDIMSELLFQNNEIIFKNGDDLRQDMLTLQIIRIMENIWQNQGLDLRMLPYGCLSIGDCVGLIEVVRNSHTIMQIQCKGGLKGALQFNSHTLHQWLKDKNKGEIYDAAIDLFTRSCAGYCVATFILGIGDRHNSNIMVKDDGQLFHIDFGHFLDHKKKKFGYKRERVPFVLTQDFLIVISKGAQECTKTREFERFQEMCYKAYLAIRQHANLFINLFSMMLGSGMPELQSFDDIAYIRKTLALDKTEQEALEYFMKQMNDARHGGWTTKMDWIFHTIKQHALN
Chain of H1047R PIK3CA enzyme (P27986 whole entry partner): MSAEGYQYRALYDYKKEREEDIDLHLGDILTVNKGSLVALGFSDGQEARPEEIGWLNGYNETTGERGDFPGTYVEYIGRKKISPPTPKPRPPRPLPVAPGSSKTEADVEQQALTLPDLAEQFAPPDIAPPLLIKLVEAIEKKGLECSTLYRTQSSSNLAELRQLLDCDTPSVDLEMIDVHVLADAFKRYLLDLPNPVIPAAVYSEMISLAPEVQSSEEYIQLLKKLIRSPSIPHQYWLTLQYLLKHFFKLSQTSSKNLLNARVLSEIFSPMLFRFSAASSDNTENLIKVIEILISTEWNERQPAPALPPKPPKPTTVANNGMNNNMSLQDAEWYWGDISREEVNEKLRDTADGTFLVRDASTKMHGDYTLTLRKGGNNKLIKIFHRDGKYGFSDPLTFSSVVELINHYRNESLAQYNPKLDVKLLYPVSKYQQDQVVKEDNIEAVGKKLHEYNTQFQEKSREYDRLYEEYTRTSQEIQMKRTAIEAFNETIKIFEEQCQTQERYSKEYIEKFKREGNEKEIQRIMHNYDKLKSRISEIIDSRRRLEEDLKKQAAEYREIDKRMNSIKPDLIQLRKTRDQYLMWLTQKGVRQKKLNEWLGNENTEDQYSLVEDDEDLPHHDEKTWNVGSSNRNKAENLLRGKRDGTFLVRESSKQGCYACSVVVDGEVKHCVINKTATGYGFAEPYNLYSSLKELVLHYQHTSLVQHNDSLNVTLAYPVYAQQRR

Row | IC50 | SMILES
1 | ≤ 100 nM | O=C(NCC(F)F)Nc1cc(NC(=O)c2cc(F)cc(C(F)(F)F)c2)c2c(c1)C(=O)NC2c1cc(F)ccc1Cl (centres unmarked) [Compound I-510]
2 | 1000 to 10000 nM | O=C1N[C@@H](c2cc(F)ccc2Cl)c2c(NC(=O)N3C[C@@](O)(C(F)(F)F)c4cc(F)ccc43)ccc(-n3nccn3)c21 (single isomer, unassigned) [Compound I-2527]
3 | 10000 to 100000 nM | O=C(Nc1cc(Br)cc2c1C(c1cc(F)ccc1Cl)NC2=O)c1ccc2nncn2c1 (centres unmarked) [Compound I-637]
4 | 10000 to 100000 nM | O=C1N[C@@H](c2cc(F)ccc2Cl)c2c(NC(=O)N3C[C@](O)(C(F)(F)F)c4cc(F)ccc43)cc(N3CCCC3=O)cc21 (single isomer, unassigned) [Compound I-2668]
5 | ≤ 100 nM | O=C(Nc1cc(Cc2ccc3c(c2)CCNC3=O)cc2c1[C@H](c1cc(F)ccc1Cl)NC2=O)c1cc(F)cc(C(F)(F)F)c1 [Compound I-1626]
6 | 10000 to 100000 nM | Cc1ccccc1C1NC(=O)c2cccc(NC(=O)c3cc(C(F)(F)F)ccn3)c21 (centres unmarked) [Compound I-337]
7 | 10000 to 100000 nM | O=C1NC(c2cc(F)ccc2Cl)c2c(NC(=O)C3CCCC3C(F)F)cc(Br)cc21 (centres unmarked) [Compound I-1621]
8 | ≤ 100 nM | CS(=O)(=O)CCn1cc(-c2cc(NC(=O)c3cc(F)cc(C(F)(F)F)c3)c3c(c2)C(=O)NC3c2cc(F)ccc2Cl)cn1 (centres unmarked) [Compound I-1398]
9 | ≤ 100 nM | O=C(Nc1cc(N2CC3CNC(=O)C3C2)cc2c1C(c1cc(F)ccc1Cl)NC2=O)c1cc(F)cc(C(F)(F)F)c1 (centres unmarked) [Compound I-1309]
10 | 1000 to 10000 nM | CNc1cc(Nc2csc3ccccc23)cc2c1C(=O)NC2c1ccccc1C (centres unmarked) [Compound I-77]
11 | 1000 to 10000 nM | O=C1NC(c2cc(F)ccc2Cl)c2c(NC(=O)N3CCC(c4ccccc4)C3)cc(Br)cc21 (racemic) [Compound I-598]
12 | ≤ 100 nM | Cc1ccccc1C1NC(=O)c2cc(C#N)cc(NC(=O)c3nsc4ccccc34)c21 (centres unmarked) [Compound I-116]
13 | 10000 to 100000 nM | CN(C)/C=N/c1cc(Br)cc2c1C(c1cc(F)ccc1Br)NC2=O (centres unmarked) [Compound I-326]
14 | 500 to 1000 nM | Cn1cc(Nc2cc(NC(=O)c3cc(F)cc(C(F)(F)F)c3)c3c(c2)C(=O)N[C@@H]3c2cc(F)ccc2Cl)cn1 (single isomer, unassigned) [Compound I-998]
15 | 500 to 1000 nM | O=C1NC(c2cc(F)ccc2Cl)c2c(NC(=O)[C@H]3CCC[C@@H](C(F)(F)F)C3)cccc21 (some centres unmarked) [Compound I-2079]
16 | 1000 to 10000 nM | O=C(Nc1cc(Br)cc2c1C(c1cc(F)ccc1Cl)NC2=O)c1cc(Cl)cc2c1NCCO2 (centres unmarked) [Compound I-1242]
17 | 500 to 1000 nM | O=C1N[C@H](c2cc(F)ccc2Cl)c2c(NC(=O)N3C[C@@H](O)c4cc(F)ccc43)cc(-n3cccn3)cc21 (single isomer, unassigned) [Compound I-2365]
18 | ≤ 100 nM | CN1C(=O)CCC1COc1cc(NC(=O)c2cc(F)cc(C(F)(F)F)c2)c2c(c1)C(=O)NC2c1cc(F)ccc1Cl (racemic) [Compound I-1347]
19 | 500 to 1000 nM | O=C1NC(c2cc(F)ccc2Cl)c2c(NC(=O)c3cc(F)cc4cn[nH]c34)cccc21 (centres unmarked) [Compound I-594]
20 | ≤ 100 nM | N#Cc1c(-c2cc(NC(=O)c3cc(F)cc(C(F)(F)F)c3)c3c(c2)C(=O)NC3c2cc(F)ccc2Cl)cnn1C(F)F (centres unmarked) [Compound I-1862]
21 | ≤ 100 nM | N#Cc1cn(Cc2cc(NC(=O)c3cc(F)cc(C(F)(F)F)c3)c3c(c2)C(=O)NC3c2cc(F)ccc2Cl)cn1 (centres unmarked) [Compound I-1719]
22 | ≤ 100 nM | [2H][C@]1(c2cc(F)ccc2Cl)NC(=O)c2cc(-c3ccc4ncnn4c3)cc(NC(=O)c3cc(F)cc(C(F)(F)F)c3)c21 (single isomer, unassigned) [Compound I-1600]

Row | IC50 | SMILES
23 | ≤ 100 nM | COc1ncc(-c2cc(NC(=O)c3cc(F)cc(C(F)(F)F)c3)c3c(c2)C(=O)NC3c2cc(F)ccc2Cl)cc1F (centres unmarked) [Compound I-1419]
24 | 1000 to 10000 nM | Cc1ccccc1C1NC(=O)c2cccc(NC(=O)c3nscc3Br)c21 (centres unmarked) [Compound I-463]
25 | ≤ 100 nM | CN1CC[C@H](Nc2cc(NC(=O)c3cc(F)cc(C(F)(F)F)c3)c3c(c2)C(=O)NC3c2cc(F)ccc2Cl)C1 (some centres unmarked) [Compound I-311]
26 | 10000 to 100000 nM | O=C(Nc1cc(Br)cc2c1C(c1cc(F)ccc1Cl)NC2=O)NC1(CC(F)(F)F)CCOCC1 (centres unmarked) [Compound I-1953]
27 | ≤ 100 nM | COc1ncc(-c2cc(NC(=O)c3cc(F)cc(C(F)(F)F)c3)c3c(c2)C(=O)NC3c2cc(F)ccc2Cl)cn1 (centres unmarked) [Compound I-782]
28 | 10000 to 100000 nM | CC1CN(C(=O)Nc2cc(Br)cc3c2C(c2cc(F)ccc2Cl)NC3=O)CCN1C (racemic) [Compound I-686]
29 | 10000 to 100000 nM | Cc1ccccc1C1NC(=O)c2cccc(NC(=O)c3noc4c3CCCCC4)c21 (centres unmarked) [Compound I-292]
30 | 10000 to 100000 nM | O=C(Nc1cc(Br)cc2c1C(c1cc(F)ccc1Cl)NC2=O)c1cc(F)ccc1Cl (centres unmarked) [Compound I-791]
31 | 10000 to 100000 nM | O=C1NC(c2cc(F)ccc2Cl)c2c(NC(=O)C3CCCCO3)cc(-c3ccc4ncnn4c3)cc21 (centres unmarked) [Compound I-1803]
32 | ≤ 100 nM | CP(C)(=O)Cc1cc(NC(=O)c2cc(F)cc(C(F)(F)F)c2)c2c(c1)C(=O)NC2c1cc(F)ccc1Cl (centres unmarked) [Compound I-775]
33 | ≤ 100 nM | Cc1ccccc1C1NC(=O)c2cc(-c3cnoc3)cc(NC(=O)c3csc4ccccc34)c21 (centres unmarked) [Compound I-141]
34 | 1000 to 10000 nM | Cc1cccc2c1CCN2C(=O)Nc1cccc2c1C(c1cc(F)ccc1Cl)NC2=O (centres unmarked) [Compound I-2438]
35 | 10000 to 100000 nM | O=C(Cc1c(F)ccc(F)c1F)Nc1cc(Br)cc2c1C(c1cc(F)ccc1Cl)NC2=O (centres unmarked) [Compound I-563]
36 | 10000 to 100000 nM | NC1CCCCC1C(=O)Nc1cc(-c2ccc3ncnn3c2)cc2c1C(c1cc(F)ccc1Cl)NC2=O (centres unmarked) [Compound I-1982]
37 | 100 to 500 nM | O=C(Nc1cc(-c2ccc3ncnn3c2)cc2c1[C@H](c1cc(F)ccc1Cl)NC2=O)c1cc(F)cc2c1NC(=O)C2(F)F [Compound I-1584]
38 | ≤ 100 nM | Cn1ccc(Nc2cc(NC(=O)c3cc(F)cc(C(F)(F)F)c3)c3c(c2)C(=O)NC3c2cc(F)ccc2Cl)n1 (centres unmarked) [Compound I-867]
39 | 1000 to 10000 nM | O=C(Nc1cc(-c2ccc3ncnn3c2)cc2c1C(c1cc(F)ccc1Cl)NC2=O)C(=O)c1ccccc1 (centres unmarked) [Compound I-1730]
40 | ≤ 100 nM | O=C(Nc1cc(-c2cn[nH]c2)nc2c1[C@H](c1cc(F)ccc1Cl)NC2=O)c1cc(F)cc(Cl)c1 [Compound I-196]
41 | 100 to 500 nM | Cc1ccccc1C1NC(=O)c2c(N)ncc(NC(=O)c3cc(F)cc(C(F)(F)F)c3)c21 (centres unmarked) [Compound I-262, N-(4-Amino-3-oxo-1-(o-tolyl)-2,3-dihydro-1H-pyrrolo[3,4-c]pyridin-7-yl)-3-fluoro-5-(trifluoromethyl)benzamide]
42 | 1000 to 10000 nM | COc1ccccc1C1NC(=O)c2cccc(NC(=O)c3csc4ccccc34)c21 (centres unmarked) [Compound I-18]
43 | 1000 to 10000 nM | O=C1NC(c2cc(F)ccc2Cl)c2c(NC(=O)C3(c4ccccc4)CCCC3)cc(Br)cc21 (centres unmarked) [Compound I-604]
44 | 10000 to 100000 nM | N#Cc1cccc(C2NC(=O)c3cccc(NC(=O)c4cc(F)cc(C(F)(F)F)c4)c32)c1 (centres unmarked) [Compound I-659]

Row | IC50 | SMILES
45 | 100 to 500 nM | O=C1NC(c2cc(F)ccc2Cl)c2c(NC(=O)C34CC5CC(C3)C(F)(F)C(C5)C4)cc(Br)cc21 (centres unmarked) [Compound I-1203]
46 | ≤ 100 nM | O=C(Nc1cc(Br)cc2c1[C@H](c1cc(F)c(F)cc1Cl)NC2=O)c1cc(F)cc(C(F)(F)F)c1 [Compound I-677]
47 | ≤ 100 nM | O=C1NC(c2cc(F)c(F)cc2C(F)F)c2c(NC(=O)c3nsc4ccc(F)cc34)cccc21 (centres unmarked) [Compound I-332]
48 | 10000 to 100000 nM | O=C1NC(c2cc(F)ccc2Cl)c2c1cccc2-n1cnc2ccccc2c1=O (centres unmarked) [Compound I-1516]
49 | 10000 to 100000 nM | C[C@H]([C@H]1C[C@H](O)CN1C(=O)Nc1cccc2c1[C@H](c1cc(F)ccc1Cl)NC2=O)C(F)(F)F (single isomer, unassigned) [Compound I-2379]
50 | 1000 to 10000 nM | CC[C@@H](CC(=O)Nc1cccc2c1[C@H](c1cc(F)ccc1Cl)NC2=O)[C@H](C)C(F)(F)F (single isomer, unassigned) [Compound I-2336]
51 | 100 to 500 nM | O=C1NC(c2cc(F)ccc2Cl)c2c(NC(=O)N3CC4(CC4)c4ccccc43)cc(Br)cc21 (centres unmarked) [Compound I-1462]
52 | 10000 to 100000 nM | CNC(=O)c1cc(NC(=O)c2cc(F)cc(C(F)(F)F)c2)c2c(c1)C(=O)N[C@@H]2c1ccccc1C [Compound I-211]
53 | ≤ 100 nM | N#CCCn1cc(-c2cc(NC(=O)c3cc(F)cc(C(F)(F)F)c3)c3c(c2)C(=O)NC3c2cc(F)ccc2Cl)cn1 (centres unmarked) [Compound I-1397]
54 | ≤ 100 nM | O=C(Nc1cc(N2CCS(=O)(=O)CC2)cc2c1C(c1cc(F)ccc1Cl)NC2=O)c1cc(F)cc(C(F)(F)F)c1 (centres unmarked) [Compound I-1248]
55 | 500 to 1000 nM | O=C(Nc1cc(-c2ccc3ncnn3c2)cc2c1[C@H](c1cc(Cl)ccc1Cl)NC2=O)c1cc(F)cc(C(F)(F)F)c1 [Compound I-1053]
56 | ≤ 100 nM | Cn1cc(NS(=O)(=O)Cc2cc(NC(=O)c3cc(F)cc(C(F)(F)F)c3)c3c(c2)C(=O)NC3c2cc(F)ccc2Cl)cn1 (centres unmarked) [Compound I-1535]
57 | 1000 to 10000 nM | O=C(Nc1ccnc2c1C(c1cccc(F)c1F)NC2=O)c1cc(F)cc(Cl)c1 (centres unmarked) [Compound I-173]
58 | ≤ 100 nM | Cn1nccc1C(F)c1cc(NC(=O)c2cc(F)cc(C(F)(F)F)c2)c2c(c1)C(=O)NC2c1cc(F)ccc1Cl (mixture of isomers) [Compound I-1379]
59 | 10000 to 100000 nM | O=C1N[C@@H](c2cc(F)ccc2Cl)c2c(NC(=O)[C@H]3C[C@@H](O)C[C@@H](C(F)(F)F)C3)cc(Br)cc21 (single isomer, unassigned) [Compound I-2273]
60 | 500 to 1000 nM | CCc1cc(F)cc(C(=O)Nc2cc(Br)cc3c2C(c2ccccc2C)NC3=O)c1 (centres unmarked) [Compound I-608]
61 | 100 to 500 nM | Cc1ccccc1C1NC(=O)Oc2cccc(NC(=O)c3csc4ccccc34)c21 (centres unmarked) [Compound I-294]
62 | ≤ 100 nM | O=C(Nc1cc(-c2ccc(=O)n(C(F)F)c2)cc2c1C(c1cc(F)ccc1Cl)NC2=O)c1cc(F)cc(C(F)(F)F)c1 (centres unmarked) [Compound I-1768]
63 | 10000 to 100000 nM | CC(=O)N1CCCC(C2NC(=O)c3cccc(NC(=O)c4cc(F)cc(C(F)(F)F)c4)c32)C1 (racemic) [Compound I-1771]
64 | ≤ 100 nM | O=C(Nc1cc(C2CCCO2)cc2c1C(c1cc(F)ccc1Cl)NC2=O)c1cc(F)cc(C(F)(F)F)c1 (centres unmarked) [Compound I-364]
65 | 1000 to 10000 nM | CCC(CC(=O)Nc1cccc2c1C(c1cc(F)ccc1Cl)NC2=O)C(C)C(F)(F)F (centres unmarked) [Compound I-2193]

From patent US12581252B2, “Substituted pyrrolo[3,4-b]pyridines as PI3K-α inhibitors” (Relay Therapeutics, Inc., priority 2020, dated 2026)
